According to patent US20260167623A1 (NIKANG THERAPEUTICS, INC., priority 2022, published 2026):

Biological target: T1, CDK2 (Homo sapiens, UniProt P24941)
T1 construct: High-Throughput Measurement of Cellular Endogenous CDK2; endogenous in cells; host or cells: OVCAR3
Assay: Inhibition of CDK2: phospho-Rb (S807/811) HTRF measurement in OVCAR3 cells, 24 h
Type: cell-based
Details: 24 h compound treatment, read-out: pRB_OVCAR3_24h
Experimental: Inhibition of CDK2: Phospho-R^b Measurement in Cells
Phosphorylation of RB protein at S807/811 were measured using HTRF phospho-RB cellular kits (Cat #64RBS807PEG) from Cisbio.
On Day 1, OVCAR3 (CDK2 dependent cell line) cells were seeded into 96-well tissue-culture treated plates at 20,000 cells/well in 200 μL and incubated overnight at 37° C. in CO2 atmosphere. On Day 2, the cells were treated with test compounds at concentrations from 0.3 to 10,000 nM using HP D300 digital dispenser. Twenty-four hours after compound treatment, cell culture media is removed by flicking the plate and tapping the plate against clean paper towel. 30 μL 1× lysis buffer was supplemented from the kit was added to each well and the plate was incubated at room temperature on shaker for 30 min. After homogenization by pipetting up and down, 8 μL cell lysate from 96-well cell culture plate was transferred to 384-well small volume white detection plate. 2 μL premixed detection solution was added and the plate was covered with sealer. To prepare the detection solution, d2 conjugated-phospho-RB antibody and Eu-cryptate conjugated phosphor-RB antibody were diluted into detection buffer following manufacturer's instruction. Detection plates were incubated for 4 h at room temperature and read on ClarioStar (BMG Labtech) in TR-FRET mode (665 nM and 620 nM). The TR-FRET ratio (665 nM/620 nM) was plotted against the compound concentration and normalized to DMSO controls. Half maximal inhibition concentration (IC50) values were calculated with a four-parameter logistic fit using GraphPad Prism (version 8; La Jolla, CA).

Row | SMILES | IC50 [nM]
1 | Cn1nc(N2CCC(=O)NC2=O)c2ccc(N3CC4(CN(Cc5cccc(S(=O)(=O)N6CCC(Nc7ncc(C(F)(F)F)cn7)CC6)c5)C4)C3)cc21 [Example 4, 1-(1-methyl-6-(6-(3-((4-((5-(trifluoromethyl)pyrimidin-2-yl)amino)piperidin-1-yl)sulfonyl)benzyl)-2,6-diazaspiro[3.3]heptan-2-yl)-1H-indazol-3-yl)dihydropyrimidine-2,4(1H,3H)-dione] | 100 to 500
2 | Cn1nc(N2CCC(=O)NC2=O)c2ccc(C3CCN(C[C@H]4CCN(c5cccc(S(=O)(=O)N6CCC(Nc7ncc(Cl)cn7)CC6)c5)C4)CC3)cc21 [Example 144, (R)-1-(6-(1-((1-(3-((4-((5-chloropyrimidin-2-yl)amino)piperidin-1-yl)sulfonyl)phenyl)-pyrrolidin-3-yl)methyl)piperidin-4-yl)-1-methyl-1H-indazol-3-yl)dihydropyrimidine-2,4(1H,3H)-dione] | 100 to 500
3 | Cn1c(=O)n(C2CCC(=O)NC2=O)c2cccc(C3CCN(CC4CCN(c5cc(C(F)(F)F)cc(S(=O)(=O)N6CCC(Nc7ncc(Cl)cn7)CC6)c5)CC4)CC3)c21 (stereo not shown) [Example 173, 3-(4-(1-((1-(3-((4-((5-chloropyrimidin-2-yl)amino)piperidin-1-yl)sulfonyl)-5-(trifluoromethyl)phenyl)piperidin-4-yl)methyl)piperidin-4-yl)-3-methyl-2-oxo-2,3-dihydro-1H-benzo[d]imidazol-1-yl)piperidine-2,6-dione] | 500 to 2500
4 | Cn1nc(N2CCC(=O)NC2=O)c2cc(F)c(N3CCN(CC4CCN(c5cccc(S(=O)(=O)N6CCC(Nc7ncc(C(F)(F)F)cn7)CC6)c5)CC4)CC3)cc21 [Example 110, 1-(5-fluoro-1-methyl-6-(4-((1-(3-((4-((5-(trifluoromethyl)pyrimidin-2-yl)amino)-piperidin-1 - yl)sulfonyl)phenyl)piperidin-4-yl)methyl)piperazin-1-yl)-1H-indazol-3-yl)dihydropyrimidine-2,4(1H,3H)-dione] | 100 to 500
5 | O=C1CCC(Nc2ccc(N3CCN(CC4CCN(c5cccc(S(=O)(=O)N6CCC(Nc7ncc(C(F)(F)F)cn7)CC6)c5)CC4)CC3)cc2)C(=O)N1 (stereo not shown) [Example 133, 3-((4-(4-((1-(3-((4-((5-(trifluoromethyl)-pyrimidin-2-yl)amino)piperidin-1-yl)sulfonyl)phenyl)piperidin-4-yl)methyl)piperazin-1-yl)phenyl)amino)-piperidine-2,6-dione] | 100 to 500
6 | Cn1c(=O)n(C2CCC(=O)NC2=O)c2cccc(C3CCN(Cc4cc(S(=O)(=O)N5CCC(Nc6ncc(OC(F)F)cn6)CC5)ccc4C#N)CC3)c21 (stereo not shown) [Example 196, 4-((4-((5-(difluoromethoxy)pyrimidin-2-yl)amino)piperidin-1-yl)sulfonyl)-2-((4-(1-(2,6-dioxopiperidin-3-yl)-3-methyl-2-oxo-2,3-dihydro-1H-benzo[d]imidazol-4-yl)piperidin-1-yl)methyl)benzonitrile] | 100 to 500
7 | Cn1nc(N2CCC(=O)NC2=O)c2ccc(C3CCN(CC4CCN(c5ccc(F)c(S(=O)(=O)N6CCC(Nc7ncc(Cl)cn7)CC6)c5)CC4)CC3)cc21 [Example 189, 1-(6-(1-((1-(3-((4-((5-chloropyrimidin-2-yl)amino)piperidin-1-yl)sulfonyl)-4-fluorophenyl)piperidin-4-yl)methyl)piperidin-4-yl)-1-methyl-1H-indazol-3-yl)dihydropyrimidine-2,4(1H,3H)-dione] | > 2500
8 | O=C1CCC(N2Cc3cc(N4CCN(CC5CCN(c6cccc(S(=O)(=O)N7CCC(Nc8ncc(C(F)(F)F)cn8)CC7)c6)CC5)CC4)c(F)cc3C2=O)C(=O)N1 (stereo not shown) [Example 101, 3-(6-fluoro-1-oxo-5-(4-((1-(3-((4-((5-(trifluoromethyl)pyrimidin-2-yl)amino)-piperidin-1-yl)sulfonyl)phenyl)piperidin-4-yl)methyl)piperazin-1-yl)isoindolin-2-yl)piperidine-2,6-dione] | 100 to 500
9 | Cn1c(=O)n(C2CCC(=O)NC2=O)c2cc(C3CCN(CC4CCN(c5cccc(S(=O)(=O)N6CCC(Nc7ncc(C(F)(F)F)cn7)CC6)c5)CC4)CC3)ccc21 (stereo not shown) [Example 167, 3-(3-methyl-2-oxo-6-(1-((1-(3-((4-((5-(trifluoromethyl)pyrimidin-2-yl)amino)piperidin-1-yl)sulfonyl)phenyl)piperidin-4-yl)methyl)piperidin-4-yl)-2,3-dihydro-1H-benzo[d]imidazol-1-yl)piperidine-2,6-dione] | 500 to 2500
10 | Cn1nc(N2CCC(=O)NC2=O)c2ccc(N3CCN(CC4CCN(c5cccc(S(=O)(=O)N6CCC(Nc7ncc(C(F)(F)F)cn7)CC6)c5)CC4)CC3)cc21 [Example 51, 1-(1-methyl-6-(4-((1-(3-((4-((5-(trifluoro-methyl)pyrimidin-2-yl)amino)piperidin-1-yl)sulfonyl)phenyl)piperidin-4-yl)methyl)piperazin-1-yl)-1H-indazol-3-yl)dihydropyrimidine-2,4(1H,3H)-dione] | 500 to 2500
11 | Cn1nc(N2CCC(=O)NC2=O)c2ccc(C3CCN(CC4CCN(c5cccc(S(=O)(=O)N6[C@@H]7CC[C@H]6CC(Nc6ncc(Cl)cn6)C7)c5)CC4)CC3)cc21 (stereo partly drawn) [Example 227, 1-(6-(1-((1-(3-(((1R,5S)-3-((5-chloropyrimidin-2-yl)amino)-8-azabicyclo[3.2.1]octan-8-yl)sulfonyl)phenyl)piperidin-4-yl)methyl)piperidin-4-yl)-1-methyl-1H-indazol-3-yl)dihydropyrimidine-2,4(1H,3H)-dione] | 500 to 2500
12 | Cn1c(=O)n(C2CCC(=O)NC2=O)c2cccc(C3CCN(Cc4cccc(S(=O)(=O)N5CCC(Nc6ncc(OC(F)F)cn6)CC5)c4)CC3)c21 (stereo not shown) [Example 128, 3-(4-(1-(3-((4-((5-(difluoromethoxy)-pyrimidin-2-yl)amino)piperidin-1-yl)sulfonyl)benzyl)piperidin-4-yl)-3-methyl-2-oxo-2,3-dihydro-1H-benzo[d]imidazol-1-yl)piperidine-2,6-dione] | 1 to 100
13 | Cn1nc(N2CCC(=O)NC2=O)c2ccc(C3CN(Cc4cccc(S(=O)(=O)N5CCC(Nc6ncc(C(F)(F)F)cn6)CC5)c4)C3)cc21 [Example 49, 1-(1-methyl-6-(1-(3-((4-((5-(trifluoro-methyl)pyrimidin-2-yl)amino)piperidin-1-yl)sulfonyl)benzyl)azetidin-3-yl)-1H-indazol-3-yl)dihydropyrimidine-2,4(1H,3H)-dione] | 500 to 2500
14 | O=C1CCC(N2Cc3cc(C4CN(Cc5cccc(S(=O)(=O)N6CCC(Nc7ncc(C(F)(F)F)cn7)CC6)c5)C4)ccc3C2=O)C(=O)N1 (stereo not shown) [Example 48, 3-(1-oxo-5-(1-(3-((4-((5-(trifluoromethyl)-pyrimidin-2-yl)amino)piperidin-1-yl)sulfonyl)benzyl)azetidin-3-yl)isoindolin-2-yl)piperidine-2,6-dione] | 100 to 500
15 | Cn1nc(N2CCC(=O)NC2=O)c2ccc(C3CCN(Cc4cc(S(=O)(=O)N5CCC(Nc6ncc(OC(F)F)cn6)CC5)ccc4C#N)CC3)cc21 [Example 169, 4-((4-((5-(difluoromethoxy)pyrimidin-2-yl)amino)piperidin-1-yl)sulfonyl)-2-((4-(3-(2,4-dioxotetrahydropyrimidin-1(2H)-yl)-1-methyl-1H-indazol-6-yl)piperidin-1-yl)methyl)benzonitrile] | 100 to 500
16 | Cn1nc(N2CCC(=O)NC2=O)c2ccc(C3CCN(CC4CCN(S(=O)(=O)c5ccc(Nc6ncc(C(F)(F)F)cn6)c(F)c5)CC4)CC3)cc21 [Example 18, 1-(6-(1-((1-((3-fluoro-4-((5-(trifluoro-methyl)pyrimidin-2-yl)amino)phenyl)-sulfonyl)piperidin-4-yl)methyl)piperidin-4-yl)-1-methyl-1H-indazol-3-yl)dihydropyrimidine-2,4(1H,3H)-dione] | 500 to 2500
17 | Cn1nc(N2CCC(=O)NC2=O)c2ccc(N3CCN(CC4CCN(c5cccc(S(=O)(=O)N6CCC(Nc7ncc(Cl)cn7)CC6)c5)CC4)C4CC43)cc21 (stereo not shown) [Example 143, 1-(6-(5-((1-(3-((4-((5-chloropyrimidin-2-yl)amino)piperidin-1-yl)sulfonyl)phenyl)-piperidin-4-yl)methyl)-2,5-diazabicyclo-[4.1.0]heptan-2-yl)-1-methyl-1H-indazol-3-yl)dihydropyrimidine-2,4(1H,3H)-dione] | 500 to 2500
18 | Cn1nc(N2CCC(=O)NC2=O)c2ccc(C3CCN(CC4CCN(S(=O)(=O)[C@H]5CC[C@H](Nc6ncc(C(F)(F)F)cn6)CC5)CC4)CC3)cc21 [Example 20, 1-(1-methyl-6-(1-((1-(((1r,4r)-4-((5-(trifluoromethyl)pyrimidin-2-yl)amino)-cyclohexyl)sulfonyl)piperidin-4-yl)methyl)-piperidin-4-yl)-1H-indazol-3-yl)-dihydropyrimidine-2,4(1H,3H)-dione] | 500 to 2500
19 | Cn1nc(N2CCC(=O)NC2=O)c2ccc(N3CCC(CN4C5CCC4CN(c4cccc(S(=O)(=O)N6CCC(Nc7ncc(Cl)cn7)CC6)c4)C5)CC3)cc21 [Example 166, 1-(6-(4-((3-(3-((4-((5-chloropyrimidin-2-yl)amino)piperidin-1-yl)sulfonyl)phenyl)-3,8-diazabicyclo[3.2.1]octan-8-yl)methyl)piperidin-1-yl)-1-methyl-1H-indazol-3-yl)dihydropyrimidine-2,4(1H,3H)-dione] | > 2500
